From the SangsterLogP compilation come the findings set out here.

In general, logP refers to a log measure of how a compound divides between an organic and an aqueous phase. Low values mean lower lipophilicity, high ones higher lipophilicity.

The data set in a line: method code SF-AS, from PMID: 4480356.

Molecule `Oc1ccc(C(c2ccncc2)c2ccc(O)cc2)cc1` showed a logP of 3.24.
In turn, `Oc1ccc(Cc2ccc(O)cc2)cc1` returned a logP of 2.91.
Take `Oc1ccc(C(c2ccc(O)cc2)c2nccs2)cc1`: the logP came to 2.96.
As for `Oc1ccc(C(c2ccc(O)cc2)c2cccnc2)cc1`, the logP amounted to 3.13.
To `Nc1ccccc1C(c1ccc(O)cc1)c1ccc(O)cc1` belongs 3.16; to `Cc1cnc(Cc2ccc(O)cc2)s1`, 2.62.
`Oc1ccc(C(c2ccc(O)cc2)c2ccccn2)cc1`: the logP came out at 2.84.
For `O=C(O)c1ccccc1C(c1ccc(O)cc1)c1ccc(O)cc1` the value was 2.61.
On to `Cc1cnc(C(c2ccc(O)cc2)c2ccc(O)cc2)s1`, for which the logP was 3.34.
Turning to `OCc1ccccc1C(c1ccc(O)cc1)c1ccc(O)cc1`, the logP came out at 3.27.
